Assay results taken from US7304092B1, “Compounds and methods for treating tumors, cancer and hyperproliferative diseases” (Yale University, priority 2002, dated 2007).
“Also recorded” adds a separate entry of the source.

Key:
32D cells = experiment: Low cell density cell proliferation assay, control cell line; format: cell-based, murine; details: for control cells surviving: 100 nM
Experimental: (§1) The acetylenes were prepared by deprotonation of a propiolate (either methyl or tert-butyl) with n-butyllithium and subsequent reaction with an isocyanate (FIG. 4). Modifications may be readily made following the aforementioned schemes. The furan and acetylene libraries were both tested for activity in a cell-based assay where the death of engineered murine myeloid cells (32D-bcr-abl), the survival of which depends on the activity of bcr-abl tyrosine kinase, was sought.
(§2) The biological activity of these compounds was evaluated in two ways, a murine cell line differential proliferation assay and a NCI 60 human carcinoma cell-line growth inhibition and cell death assay. The murine cell death assays were performed using a p210bcrabl transformed 32D murine cell line. […] The NCl assay was performed in the Developmental Therapeutics Program at the National Cancer Institute. This assay measures the inhibition of cell growth and cell death from sixty different human carcinomas. Both the acetylene and furan structural cores represent novel chemical entities with no prior reports of biological activity. […] At present, the use of these compounds is to be preferred in the treatment of tumors and cancer.
(§3) The furan and acetylene libraries were both tested for activity in a cell-based assay where the death of engineered murine myeloid cells (32D-bcr-abl), the survival of which is depends on the activity of bcr-abl tyrosine kinase, was sought.
(§4) Low cell density high throughput cell proliferation assay Between 50 and 100 32D and 32DtetP210Bcr-Abl cells in 100 microliters of medium without serum were exposed to the test compound for 15 minutes. An equal volume of 20% serum supplemented tissue culture medium was then added and the cells were inoculated in single well in 32 wells of a 96 well plate. The endpoint of the assay was the fraction of the 32 wells in which a cell pellet was seen to develop which was filled with live cells. This assay is subject to automated screening by a plate reader for the cell pellet. We used this high throughput assay to screen for compounds that suppress the growth of the 32DtetP210Bcr-Abl cell line in the absence of IL-3, but allow the growth of the 32D cell line in the presence of IL-3. Various concentrations of each compound were tested.

[1] = test system: 32DtetP210Bcr-Abl cells (32D-bcr-abl); experiment: Low cell density cell proliferation / cell death assay, bcr-abl dependent cells; format: cell-based, murine; details: for activity (death of 32D-bcr-abl cells) / selectivity (32D-bcr-abl over control cells): result in words; for activity (death of 32D-bcr-abl cells): structure-activity comparison; for selectivity (32D-bcr-abl over control cells): versus control 32D cell line; for activity / selectivity: in words; for inhibition of the 32DtetP210bcrabl cell line: 1 micromolar, FIG. 13, in words
Experimental: as §1
The biological activity of these compounds was evaluated in two ways, a murine cell line differential proliferation assay and a NCI 60 human carcinoma cell-line growth inhibition and cell death assay. The murine cell death assays were performed using a p210bcrabl transformed 32D murine cell line. […] The NCl assay was performed in the Developmental Therapeutics Program at the National Cancer Institute. This assay measures the inhibition of cell growth and cell death from sixty different human carcinomas.
as §3, §4

[2] = test system: carcinoma and model carcinoma cell lines; experiment: Summary of activity in the cell line assays; format: cell-based; details: in words
Experimental: as §2

[3] = test system: 60 human carcinoma cell lines; experiment: NCI 60 human carcinoma cell-line growth inhibition and cell death assay, whole panel; format: cell-based
Experimental: as §2
(§5) In order to obtain additional information about the behavior of our compounds in cancerous cells, 18 compounds were submitted to and accepted by the NCl for testing on 60 human carcinoma cell lines as set forth in the examples section. This would confirm the activity seen in our cell-based assay and maybe give an insight into the mechanism of action and biological target of the acetylene/furan compounds. […] As a result, K1P was singled out by the NCl for further testing: MTD (Maximum Tolerated Dose) and murine hollow fiber in vivo assay. These are being carried out at the present time, along with testing of furans AN7A and AN7B in the 60 human cancer cell lines. […]

leukemia cell lines = experiment: NCI 60 human carcinoma cell-line growth inhibition assay, leukemia panel; format: cell-based; details: span over the lines
Experimental: as §2, §5

CK1 = experiment: Cell free kinase inhibition assay; format: biochemical
Experimental: (§6) Cell Free Kinase Inhibition Assay. A panel of 60 kinases (Upstate Biotechnologies, Lake Placid, N.Y.) were analyzed in in vitro cell free kinase assays.

Fyn = target: T1, Fyn (Homo sapiens, UniProt P06241); experiment: Cell free kinase inhibition assay; format: biochemical
T1 construct: purchased Upstate Biotechnologies, Lake Placid, N.Y
Experimental: as §6

Lyn = target: T2, Lyn (Homo sapiens, UniProt P07948); experiment: Cell free kinase inhibition assay; format: biochemical
T2 construct: purchased Upstate Biotechnologies, Lake Placid, N.Y
Experimental: as §6

IKKBeta = target: T3, IKKBeta (Homo sapiens, UniProt O14920); experiment: Cell free kinase inhibition assay; format: biochemical
T3 construct: purchased Upstate Biotechnologies, Lake Placid, N.Y
T3 sequence (O14920 1-756): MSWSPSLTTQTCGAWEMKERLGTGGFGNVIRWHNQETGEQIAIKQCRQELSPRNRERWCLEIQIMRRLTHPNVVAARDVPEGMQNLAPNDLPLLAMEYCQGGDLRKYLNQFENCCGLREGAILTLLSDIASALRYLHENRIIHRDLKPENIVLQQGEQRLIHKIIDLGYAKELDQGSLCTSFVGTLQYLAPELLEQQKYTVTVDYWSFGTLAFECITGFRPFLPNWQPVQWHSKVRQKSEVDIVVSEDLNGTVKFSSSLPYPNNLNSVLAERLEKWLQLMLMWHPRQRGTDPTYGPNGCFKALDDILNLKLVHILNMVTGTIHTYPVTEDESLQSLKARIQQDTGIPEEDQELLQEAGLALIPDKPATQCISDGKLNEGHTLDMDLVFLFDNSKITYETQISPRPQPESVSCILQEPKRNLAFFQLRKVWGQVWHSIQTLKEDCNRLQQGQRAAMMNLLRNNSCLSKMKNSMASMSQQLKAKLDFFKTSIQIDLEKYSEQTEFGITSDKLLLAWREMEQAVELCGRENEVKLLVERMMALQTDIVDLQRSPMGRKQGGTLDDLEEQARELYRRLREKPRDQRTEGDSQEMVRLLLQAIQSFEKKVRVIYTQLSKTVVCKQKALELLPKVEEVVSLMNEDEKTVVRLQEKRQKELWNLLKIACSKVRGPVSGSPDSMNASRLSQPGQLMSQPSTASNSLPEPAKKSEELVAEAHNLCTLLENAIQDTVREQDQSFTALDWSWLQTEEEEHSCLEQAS
Experimental: as §6

CaMKII = experiment: Cell free kinase inhibition assay; format: biochemical
Experimental: as §6

PKCbII = target: T4, PKCbII (Homo sapiens, UniProt P05771); experiment: Cell free kinase inhibition assay; format: biochemical
T4 construct: purchased Upstate Biotechnologies, Lake Placid, N.Y
Experimental: as §6

CaMKIV = target: T5, CaMKIV (Homo sapiens, UniProt Q16566); experiment: Cell free kinase inhibition assay; format: biochemical
T5 construct: purchased Upstate Biotechnologies, Lake Placid, N.Y
T5 sequence (Q16566 1-473): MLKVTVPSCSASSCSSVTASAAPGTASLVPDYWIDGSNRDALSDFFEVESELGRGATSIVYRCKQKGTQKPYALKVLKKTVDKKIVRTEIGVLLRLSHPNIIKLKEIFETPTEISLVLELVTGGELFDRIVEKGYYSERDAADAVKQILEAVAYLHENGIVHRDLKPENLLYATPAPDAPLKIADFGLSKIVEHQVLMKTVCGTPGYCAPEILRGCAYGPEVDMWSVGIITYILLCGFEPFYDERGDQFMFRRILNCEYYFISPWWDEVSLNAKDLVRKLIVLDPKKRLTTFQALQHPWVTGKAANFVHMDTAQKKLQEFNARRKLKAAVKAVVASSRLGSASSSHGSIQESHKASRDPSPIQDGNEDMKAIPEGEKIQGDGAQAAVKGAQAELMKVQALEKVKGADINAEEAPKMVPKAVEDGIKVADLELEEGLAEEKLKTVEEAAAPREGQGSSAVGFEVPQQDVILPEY
Experimental: as §6

PKCy = target: T6, PKCy (Homo sapiens, UniProt P05129); experiment: Cell free kinase inhibition assay; format: biochemical
T6 construct: purchased Upstate Biotechnologies, Lake Placid, N.Y
Experimental: as §6

CDK2/cyclinA = target: T7, CDK2/cyclinA (Homo sapiens, UniProt P24941); experiment: Cell free kinase inhibition assay; format: biochemical
T7 construct: purchased Upstate Biotechnologies, Lake Placid, N.Y
Experimental: as §6

renal cell lines = experiment: NCI 60 human carcinoma cell-line growth inhibition assay, renal panel; format: cell-based; details: span over the lines
Experimental: as §2, §5

T4 sequence (P05771 1-673 isoform P05771-2): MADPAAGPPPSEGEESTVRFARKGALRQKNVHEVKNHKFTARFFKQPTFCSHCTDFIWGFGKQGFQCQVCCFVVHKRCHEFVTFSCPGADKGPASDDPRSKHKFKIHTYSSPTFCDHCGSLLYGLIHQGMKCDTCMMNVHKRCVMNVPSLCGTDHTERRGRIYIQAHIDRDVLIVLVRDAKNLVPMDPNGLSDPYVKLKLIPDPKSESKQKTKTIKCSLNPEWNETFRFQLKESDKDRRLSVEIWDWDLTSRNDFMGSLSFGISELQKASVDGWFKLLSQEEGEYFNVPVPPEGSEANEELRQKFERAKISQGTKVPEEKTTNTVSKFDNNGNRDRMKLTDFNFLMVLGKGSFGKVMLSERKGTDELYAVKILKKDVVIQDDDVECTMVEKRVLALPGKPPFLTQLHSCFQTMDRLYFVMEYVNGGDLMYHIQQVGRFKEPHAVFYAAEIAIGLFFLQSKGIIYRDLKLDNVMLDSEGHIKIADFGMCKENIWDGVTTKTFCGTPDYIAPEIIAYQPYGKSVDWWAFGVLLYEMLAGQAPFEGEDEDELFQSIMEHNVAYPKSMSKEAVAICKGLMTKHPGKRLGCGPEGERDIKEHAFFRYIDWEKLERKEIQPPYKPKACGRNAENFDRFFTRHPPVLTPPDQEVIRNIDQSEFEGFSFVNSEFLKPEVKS
T1 sequence (P06241 whole entry, species assumed): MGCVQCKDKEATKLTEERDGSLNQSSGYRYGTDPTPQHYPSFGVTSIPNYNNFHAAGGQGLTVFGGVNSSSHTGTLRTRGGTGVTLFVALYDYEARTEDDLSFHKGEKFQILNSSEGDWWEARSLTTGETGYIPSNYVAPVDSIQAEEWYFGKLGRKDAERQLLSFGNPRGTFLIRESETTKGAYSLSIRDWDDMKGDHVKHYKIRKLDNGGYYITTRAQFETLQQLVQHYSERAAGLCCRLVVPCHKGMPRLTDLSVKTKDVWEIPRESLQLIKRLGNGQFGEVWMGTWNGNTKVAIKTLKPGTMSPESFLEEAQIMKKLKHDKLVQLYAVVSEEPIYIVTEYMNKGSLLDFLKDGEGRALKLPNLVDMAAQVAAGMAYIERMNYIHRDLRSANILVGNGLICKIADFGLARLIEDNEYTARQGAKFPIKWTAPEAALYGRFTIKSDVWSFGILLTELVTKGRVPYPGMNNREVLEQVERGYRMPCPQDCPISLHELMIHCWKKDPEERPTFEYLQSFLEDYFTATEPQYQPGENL
T2 sequence (P07948 whole entry, species assumed): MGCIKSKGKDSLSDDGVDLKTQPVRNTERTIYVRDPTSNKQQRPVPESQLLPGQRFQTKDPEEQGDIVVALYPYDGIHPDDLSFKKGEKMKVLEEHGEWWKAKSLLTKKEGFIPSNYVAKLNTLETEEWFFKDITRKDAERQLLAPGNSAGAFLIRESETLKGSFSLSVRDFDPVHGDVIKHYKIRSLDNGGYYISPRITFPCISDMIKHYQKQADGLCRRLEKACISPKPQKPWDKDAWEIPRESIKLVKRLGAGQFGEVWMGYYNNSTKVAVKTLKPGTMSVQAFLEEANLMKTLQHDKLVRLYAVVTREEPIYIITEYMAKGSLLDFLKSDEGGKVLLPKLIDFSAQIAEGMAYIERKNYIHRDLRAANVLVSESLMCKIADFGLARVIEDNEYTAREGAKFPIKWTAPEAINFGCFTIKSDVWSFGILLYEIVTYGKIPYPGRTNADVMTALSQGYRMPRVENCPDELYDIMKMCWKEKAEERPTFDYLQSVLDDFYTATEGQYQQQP

Compound CC(C)(C)OC(=O)C#CC(=O)NC1CCCCC1 [AC1] has a control cells surviving (32D cells) of 100% and a leukemic cells surviving ([1]; 100 nM) of 50%.
With COC(=O)C#CC(=O)Nc1ccc(OC)cc1 [AC3] the “activity (death of 32D-bcr-abl cells)” value [1] was “decreased activity and selectivity dramatically” and the “selectivity (32D-bcr-abl over control cells)” value [1] was “decreased activity and selectivity dramatically”.
COC(=O)C#CC(=O)Nc1ccccc1 [AC6] was tested, and the “activity (death of 32D-bcr-abl cells)” value [1] was “increased both selectivity and activity” and the “selectivity (32D-bcr-abl over control cells)” value [1] was “increased both selectivity and activity”.
With COC(=O)C#CC(=O)Nc1c(F)cccc1F [AC9] the “activity (death of 32D-bcr-abl cells)” value [1] was “inactive”.
In the case of COC(=O)C#CC(=O)Nc1c(C(C)C)cccc1C(C)C [AC10], the “activity (death of 32D-bcr-abl cells)” value [1] is reported as “moderate activity” and the “selectivity (32D-bcr-abl over control cells)” value [1] is reported as “no selectivity”.
COC(=O)C#CC1CCCCC1 [AC11] was tested, and the “activity (death of 32D-bcr-abl cells)” value [1] was “little or no activity”.
In the case of COC(=O)C#CC(=O)NCc1ccccc1 [AC13], the “activity (death of 32D-bcr-abl cells)” value [1] is reported as “active” and the “selectivity (32D-bcr-abl over control cells)” value [1] is reported as “little selectivity”.
For COC(=O)C#CC(=O)Nc1cccc(OC)c1 [AC15], the activity ([1]; 1 uM level) was “activity was regained” and the selectivity ([1]; 1 uM level) was “selectivity remained low”.
In the case of COC(=O)C#CC(=O)Nc1ccccc1OC [AC16], the activity ([1]; 1 uM level) is reported as “activity was regained” and the selectivity ([1]; 1 uM level) is reported as “selectivity remained low”.
With COC(=O)C#CC(=O)Nc1cc(OC)cc(OC)c1 [AC17] the activity ([1]; 1 uM level) was “activity was regained” and the selectivity ([1]; 1 uM level) was “selectivity remained low”.
In the case of COC(=O)C#CC(=O)Nc1ccc2ccccc2c1 [AC19], the activity ([1]; 100 nM) is reported as “excellent activity”, the selectivity ([1]; 100 nM) is reported as “shows selectivity” and the “activity against carcinoma and model carcinoma cell lines” value [2] is reported as “good activity”. For the same compound, the “concentration below which no activity was shown” value ([3]; NCI 60 cell lines) was at least 10 µM.
In the case of COC(=O)C#CC(=O)Nc1ccc(-c2ccccc2)cc1 [AC21], the activity ([1]; 100 nM) is reported as “excellent activity” and the selectivity ([1]; 100 nM) is reported as “only AC19 shows selectivity”.
For COC(=O)C#CC(=O)Nc1ccc(Oc2ccccc2)cc1 [AC22], the “inhibition of the 32Dtet cell line” value (32D cells; similar concentration (1 micromolar), in words) was “inhibits”, the GI50 (leukemia cell lines) was 2.6 to 7.3 µM and the activity ([1]; 10 nM) was “not active”. For the same compound, the activity ([1]; 100 nM) was “excellent activity; also recorded: very active”, the selectivity ([1]; 100 nM) was “not selective” and the “inhibition of the 32DtetP210bcrabl cell line” value [1] was “inhibitory”. The inhibition at 0.01 µM ([1]; Mus musculus, 10 nanomolar of each drug, 32DtetP210bcrabl cell line, read-out: inhibition of P210bcrabl dependent cell growth) was 10%, the “% Inhibition at 10 μM” value (CK1) was “(37) %” and the inhibition at 10 µM (Fyn) was 29%. For the same compound, the inhibition at 10 µM (Lyn) was 98%, the inhibition at 10 µM (IKKBeta) was 45% and the “% Inhibition at 10 μM” value (CaMKII) was 40%. It also gave an inhibition at 10 µM (PKCbII) of 48%, an inhibition at 10 µM (CaMKIV) of 64% and an inhibition at 10 µM (PKCy) of 61%. For the same compound, the inhibition at 10 µM (CDK2/cyclinA) was 50% and the “activity against carcinoma and model carcinoma cell lines” value [2] was “good activity”.
COC(=O)C#CC(=O)NC1CCCCC1 [K1P] gave a control cells surviving (32D cells) of 100%, a GI50 (renal cell lines) of 2500 to 2700 nM and a GI50 (leukemia cell lines) of 0.8 to 5 µM. For the same compound, the leukemic cells surviving ([1]; 100 nM) was 50%, the “inhibition of the 32DtetP210bcrabl cell line” value [1] was “inhibitory” and the “% Inhibition at 10 μM” value (CK1) was 46%. For the same compound, the inhibition at 10 µM (Fyn) was 49%, the inhibition at 10 µM (PKCbII) was 35% and the “activity against carcinoma and model carcinoma cell lines” value [2] was “good activity”. The “activity in the NCI cell lines” value ([3]; certain leukemia, colon cancer, melanoma, renal cancer cell lines and a breast cancer cell line, in words) was “enhanced activity”.
For Cc1ccc(NC(=O)c2ccc(CN3CCN(C)CC3)cc2)cc1Nc1nccc(-c2cccnc2)n1 [STI-571, reference compound], the control cells alive (32D cells; 10 nM, in words) was “all the control cells are still alive”.
